≈ marks a conversion by molar mass, not a printed value. Where “and” joins values, the source holds several entries; their conditions need not be identical. Equal entries are not always repeated. Entries after “also recorded” stand apart in the source; their conditions may differ. Where two headings read alike, the source gives them in different places.
Tests used:
[1] = system: human norovirus; parameters: method as in ref 60 = [60]; conditions: B-cell culture system; cited from earlier work
[2] = system: FCV strain F-9; assay: FCV plaque reduction assay in CRFK cells; conditions: for Therapeutic index (TI = CC50/EC50): CRFK CC50 / FCV plaque reduction EC50; for Antiviral effect against FCV in cell culture (in words): plaque reduction assay
[3] = system: human norovirus replicon; parameters: method as in ref 47, 57 = [47]; conditions: cell culture-based assays; cited from earlier work
[4] = Cytotoxicity study, CellTitre-Blue viability assay; conditions: cat
[5] = system: human GI.1 norovirus replicon; parameters: method as in ref 59 = [59]; conditions: cell culture; cited from earlier work
[6] = system: FCV RNA in infected CRFK cells; assay: FCV genome reduction assay by RT-qPCR; type: cell-based, Feline calicivirus; conditions: 24 h, MOI 0.0005
[7] = system: murine norovirus; parameters: method as in ref 47, 57 = [47]; conditions: cell culture-based assays; cited from earlier work
[8] = biological target: FCV RdRp (recombinant FCV Pro-Pol) (Feline calicivirus, UniProt Q66914); assay: Fluorescent RdRp assay (PicoGreen, poly(C) template); conditions: for RdRp Activity [% of Mock at 10 µM]: 10 µM compound, remaining activity relative to mock; for Reduction of RdRp activity compared to mock controls: fixed concentration of 10 µM
[9] = system: Crandell Rees Feline Kidney (CRFK) cells; assay: Cytotoxicity study, CellTitre-Blue viability assay; conditions: read-out: Cell Viability CC50; CRFK cells, 48 h, CellTitre-Blue
[10] = biological target: FCV protease (recombinant FCV Pro-Pol) (Feline calicivirus, UniProt Q66914); assay: Protease FRET activity assay; type: biochemical, Feline calicivirus (FCV Urbana); conditions: for Inhibitory effect against FCV protease (in words): FRET assay, up to 50 µM
[11] = in vitro; conditions: cat, Cell Viability CC50
[12] = system: FCV; parameters: method as in ref 29, 30 = [29]; conditions: cell-based assays; read-out: EC50 against FCV; cited from earlier work
[13] = system: Crandell Rees Feline Kidney (CRFK) cells
[14] = system: FCV; parameters: method as in ref 26 = [26]; conditions: read-out: EC50 against FCV in vitro; cited from earlier work
[15] = system: murine norovirus; parameters: method as in ref 64 = [64]; conditions: cited from earlier work
[16] = system: rotavirus; parameters: method as in ref 54, 63 = [54]; conditions: cell culture; cited from earlier work
[17] = in vivo; cited from earlier work
[18] = system: adenovirus; parameters: method as in ref 54, 63 = [54]; conditions: cell culture; cited from earlier work
[19] = system: GI norovirus replicon; parameters: method as in ref 64 = [64]; conditions: cleared the replicon from the host cells; cited from earlier work
[20] = system: canine coronavirus; parameters: method as in ref 54, 63 = [54]; conditions: cell culture; cited from earlier work
[21] = system: HCV infectious virus; conditions: read-out: EC50 infectious HCV in cell cultures; cited from earlier work
[22] = system: chikungunya replicon; parameters: method as in ref 75 = [75]; conditions: cited from earlier work
[23] = system: human norovirus protease (genogroup I and II); parameters: method as in ref 29, 52 = [29]; conditions: FRET-based assays; cited from earlier work
[24] = in vivo; cited from earlier work; remark: listed apart in the source
[25] = system: FCV; parameters: method as in ref 25 = [25]; conditions: in vitro assays; cited from earlier work
[26] = system: murine norovirus RdRp; parameters: method as in ref 59 = [59]; conditions: cited from earlier work
[27] = system: human norovirus RdRp; parameters: method as in ref 59 = [59]; conditions: cited from earlier work
[28] = Feline calicivirus, CRFK, 24 h, read-out: Plaque Reduction Assay EC50, FCV in CRFK cells, 24 h
[29] = read-out: Plaque Reduction Assay EC50, FCV in CRFK cells, 24 h
[30] = Crandell Rees Feline Kidney (CRFK) cells, Cell Viability CC50, CRFK cells, 48 h, CellTitre-Blue
[31] = FRET, 50 µM substrate, read-out: In vitro Protease IC50
[32] = Feline calicivirus, CRFK, 24 h, read-out: Inhibition of plaque formation
[33] = Feline calicivirus, CRFK, 24 h, read-out: Plaque Reduction Assay EC50

Chain of FCV protease (recombinant FCV Pro-Pol) (Q66914 1072-1763): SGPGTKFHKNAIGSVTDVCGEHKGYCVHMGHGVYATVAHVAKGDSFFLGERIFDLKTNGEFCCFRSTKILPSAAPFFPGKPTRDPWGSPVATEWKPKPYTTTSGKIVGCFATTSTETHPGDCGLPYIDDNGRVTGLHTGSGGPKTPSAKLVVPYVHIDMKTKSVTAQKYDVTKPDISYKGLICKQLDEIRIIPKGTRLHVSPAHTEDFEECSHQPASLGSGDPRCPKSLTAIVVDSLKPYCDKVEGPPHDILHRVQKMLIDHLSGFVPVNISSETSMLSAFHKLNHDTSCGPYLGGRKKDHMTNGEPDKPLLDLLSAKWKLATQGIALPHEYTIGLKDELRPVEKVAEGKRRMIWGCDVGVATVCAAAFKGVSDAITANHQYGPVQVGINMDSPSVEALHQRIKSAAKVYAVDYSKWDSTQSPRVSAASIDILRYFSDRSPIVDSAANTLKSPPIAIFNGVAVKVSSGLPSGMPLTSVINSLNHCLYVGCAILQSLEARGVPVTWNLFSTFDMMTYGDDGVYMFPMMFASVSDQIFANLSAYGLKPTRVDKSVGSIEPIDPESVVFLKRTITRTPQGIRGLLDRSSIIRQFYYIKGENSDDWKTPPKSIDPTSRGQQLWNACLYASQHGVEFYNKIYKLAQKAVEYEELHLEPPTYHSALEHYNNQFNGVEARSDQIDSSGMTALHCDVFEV
Chain of FCV RdRp (recombinant FCV Pro-Pol) (Q66914 1072-1763): as above

Structure (SMILES): C[C@@]1(O)[C@H](O)[C@@H](CO)O[C@H]1n1ccc(N)nc1=O [2CMC, 2′-C-methylcytidine]
- EC50 [1]: 0.3 µM
- Therapeutic index (TI = CC50/EC50) [2]: > 40
- EC50 [2, 28]: 2.5 µM
- EC50 [2, 29]: 2.6 µM
- EC50 [3]: ~18 µM
- CC50 at 48 h [4, 30]: > 100 µM
- EC50 [5]: 8.2 µM
- Reduction of FCV RNA levels compared to mock-treated cells ([6]; 10 µM): 95%
- EC50 [7]: ~2 µM

Structure (SMILES): COc1ccc2c(c1)[C@@H]1C[C@]1(C(=O)N1[C@@H]3CC[C@H]1CN(C)C3)Cn1c-2c(C2CCCCC2)c2ccc(C(=O)NS(=O)(=O)N(C)C)cc21 [Beclabuvir]
- RdRp Activity [% of Mock at 10 µM] [8]: 92.2%
- Reduction of RdRp activity compared to mock controls [8]: ≤ 10%
- CC50 [9]: 27.5 µM
- CC50 at 48 h [4, 30]: < 30 µM

Structure (SMILES): CC(C)C[C@H](NC(=O)[C@@H](NC(=O)N[C@@H](Cc1ccccc1)C(=O)O)[C@@H]1CCN=C(N)N1)C(=O)N[C@H](C=O)Cc1ccccc1 [Chymostatin, chymostatin]
- Inhibitory effect against FCV protease (in words) [10]: no inhibitory effect
- IC50 [10, 31]: > 50 µM

Structure (SMILES): CC(=O)OCC(CCn1cnc2cnc(N)nc21)COC(C)=O [Famciclovir]
- CC50 at 48 h [11]: > 100 µM
- EC50 [2, 28]: > 50 µM
- inhibition at 50 µM ([2]; Feline calicivirus, CRFK, read-out: Inhibition of plaque formation): 10%
- Antiviral effect against FCV in cell culture (in words) [2]: no antiviral effect observed

Structure (SMILES): CC(C)C[C@H](NC(=O)OCc1ccccc1)C(=O)N[C@@H](CC1CCNC1=O)C(O)S(=O)(=O)O (some centres unmarked) [GC376]
- IC50 [10, 31]: 18 µM and 18.7 µM
- EC50 [2, 29]: > 10 µM
- EC50 [12]: 35 µM and 35.2 µM
- CC50 [13]: > 100 µM

Structure (SMILES): CC(C)C[C@H](NC(=O)OCc1ccccc1)C(=O)N[C@@H](C[C@@H]1CCNC1=O)C(O)S(=O)(=O)[O-].[Na+] (some centres unmarked) [GC376]
- Inhibition of FCV protease ([10]; 50 µM): 75%
- Antiviral effect against FCV in cell culture (in words) [2]: did not display antivirals effects

Structure (SMILES): O=C(O)c1ccc2c(c1)nc(-c1ccc(OCc3cc(N4CCCC4=O)ccc3-c3ccc(Cl)cc3)cc1F)n2C1CCCCC1 [JTK-109]
- RdRp Activity [% of Mock at 10 µM] [8]: 89.8%
- Reduction of RdRp activity compared to mock controls [8]: ≤ 10%

Structure (SMILES): OC(c1cc(C(F)(F)F)nc2c(C(F)(F)F)cccc12)C1CCCCN1 (centres unmarked) [Mefloquine]
- EC50 [14]: 6.03 µM

Structure (SMILES): CC(C)C[C@H](NC(=O)[C@H](Cc1cccc2ccccc12)NC(=O)OCc1ccccc1)C(=O)N[C@H](C=O)C[C@@H]1CCNC1=O [NPI52]
- EC50 [12]: 0.02 µM

Structure (SMILES): CC(=O)Oc1ccccc1C(=O)Nc1ncc([N+](=O)[O-])s1 [Nitazoxanide, nitazoxanide]
- IC50 [8]: > 10 µM
- Activity against murine norovirus (in words) [15]: ineffective
- IC50 [10]: > 10 µM
- Therapeutic index (TI = CC50/EC50) [2]: 21.1
- EC50 [2, 28]: 0.5 µM
- EC50 ([2]; Feline calicivirus, CRFK, read-out: Plaque reduction EC50, FCV in CRFK cells, same value given in µg/mL): 0.2 µg/mL
- EC50 [2, 29]: 0.6 µM
- CC50 at 48 h [4, 30]: 12.7 µM
- Reduction of FCV RNA levels compared to mock-treated cells ([6]; 2.5 µM): 80%
- EC50 rotavirus replication [16]: 0.5 µg/mL (≈ 1.63 µM)
- Side-effects observed in cats [17]: diarrhea and vomiting
- EC50 adenovirus replication [18]: 0.2 µg/mL (≈ 0.651 µM)
- Concentration reported to inhibit GI norovirus replicon replication [19]: 5 µg/mL
- EC50 canine coronavirus replication [20]: 1 µg/mL (≈ 3.25 µM)

Structure (SMILES): Cc1nc(N=Nc2cc(S(=O)(=O)O)c3cc([N+](=O)[O-])cc(S(=O)(=O)O)c3c2)c(COP(=O)(O)O)c(C=O)c1O [PPNDS]
- RdRp Activity [% of Mock at 10 µM] [8]: 7.4%
- Reduction of RdRp activity compared to mock controls [8]: 92.6%
- IC50 ([8]; read-out: RdRp Activity IC50, dose-response 0.1-100 µM): 2.7 µM
- Inhibition of plaque formation ([2]; 10 µM, 24 h): < 10%
- Antiviral effect against FCV in cell culture (in words) [2]: did not display antivirals effects
- EC50 [2, 29]: > 10 µM
- CC50 [9]: > 100 µM

Structure (SMILES): O=c1c(O)c(-c2ccc(O)c(O)c2)oc2cc(O)c(O)c(O)c12 [Quercetagetin, quercetagetin]
- EC50 [21]: 40.2 µM
- IC50 [8]: 2.8 µM
- RdRp Activity [% of Mock at 10 µM] [8]: 11.7%
- Reduction of RdRp activity compared to mock controls [8]: 88.3%
- IC50 [22]: 43.5 µM
- inhibition at 10 µM [2, 32]: < 10%
- EC50 [2, 33]: > 10 µM
- Antiviral effect against FCV in cell culture (in words) [2]: did not display antivirals effects; also recorded: did not inhibit FCV plaque formation

Structure (SMILES): CCOC(=O)/C=C/[C@H](C[C@@H]1CCNC1=O)NC(=O)[C@@H](CC(=O)[C@@H](NC(=O)c1cc(C)on1)C(C)C)Cc1ccc(F)cc1 [Rupintrivir, rupintrivir]
- IC50 [10]: > 50 µM
- Inhibitory effect against FCV protease (in words) [10]: no inhibitory effect
- CC50 at 48 h [4, 30]: > 100 µM
- EC50 [12]: > 50 µM
- IC50 [23]: < 1 µM

Structure (SMILES): CC(C)OC(=O)[C@H](C)N[P@](=O)(OC[C@H]1O[C@@H](n2ccc(=O)[nH]c2=O)[C@](C)(F)[C@@H]1O)Oc1ccccc1 [Sofosbuvir]
- inhibition at 10 µM [2, 32]: < 10%
- EC50 [2, 33]: > 10 µM
- CC50 at 48 h [4]: > 100 µM

Structure (SMILES): NC(=O)c1nc(F)c[nH]c1=O [T-705, Favipiravir]
- inhibition at 10 µM [2, 32]: < 10%
- EC50 [2, 28]: > 10 µM
- CC50 at 48 h [4, 30]: > 100 µM

Structure (SMILES): COc1ccc2c(c1)C=C1Cn3c-2c(C2CCCCC2)c2ccc(cc23)C(=O)NS(=O)(=O)N(C)CCOCCN(C)C1=O [TMC-647055]
- RdRp Activity [% of Mock at 10 µM] [8]: 93.5%
- Reduction of RdRp activity compared to mock controls [8]: ≤ 10%
- CC50 [9]: 27.1 µM
- CC50 at 48 h [4, 30]: < 30 µM

Structure (SMILES): CC(C)[C@H](N)C(=O)O[C@@H]1[C@@H](CO)O[C@@H](n2ccc(N)nc2=O)[C@]1(C)O [Valopicitabine]
- Adverse events [24]: dose-related gastrointestinal adverse events

Structure (SMILES): COC(=O)/C=C/c1cccc(N(Cc2ccc(-c3ccc(N(C)C)cc3)cc2)C(=O)C2CCCCC2)c1 [fexaramine]
- Blocking of FCV entry (in words) [25]: effective at blocking FCV entry

Structure (SMILES): C[C@@]1(O)[C@H](O)[C@@H](COP(=O)(O)OP(=O)(O)OP(=O)(O)O)O[C@H]1n1ccc(N)nc1=O [tri-phosphorylated 2CMC]
- IC50 [26]: 1.4 µM
- IC50 [27]: 2.4 µM

Source: PMC6116245 (Viruses, 2018)
